Experimental data from patent US20020151583A1, “Prevention of liver cancer by administration of simvastatin” (priority 2001, published 2002).

Columns and labels:
liver cancer = test: Clinical case reports: imaging studies of the liver (abdominal ultrasound, MRI) for new liver masses; format: in vivo, patients
Method: (§1) In order to avoid unforeseen side effects, the treatment was initiated at a 20 mg dose once daily for one week. The dose was then increased to 40 mg daily during the following week, and was again increased to 60 mg daily during the third week. During the fourth week, the dose was increased to 80 mg daily (two tablets of 40 mg each) and remained the same thereafter. Following the administration of simvastatin as described above, the patients' alphafetoprotein levels were monitored on a monthly basis until values reached normal levels and then every three months thereafter in association with liver function tests and coagulation studies as part of a follow-up. In addition, an abdominal ultrasound test was performed every four months in an attempt to identify any new liver masses, and MRI (magnetic resonance imaging) studies of the liver were performed.

alphafetoprotein = test: Clinical case reports: monitoring of serum alphafetoprotein level under daily oral simvastatin; format: in vivo, patients
Method: as §1

Structure (SMILES): CCC(C)(C)C(=O)OC1C[C@@H](C)C=C2C=C[C@H](C)[C@H](CC[C@@H]3C[C@@H](O)CC(=O)O3)[C@H]21 (relative stereo) [simvastatin, butanoic acid, 2,2-dimethyl-,1,2,3,7,8,8a-hexahydro-3,7-dimethyl-8-[2-(tetrahydro-4-hydroxy-6-oxo-2H-pyran-2-yl)-ethyl]-1-naphthalenyl ester, [1S-[1α,3α,7β,8β(2S*,4S*),-8aβ]]]
- liver tumor mass in repeated imaging studies (liver cancer; Case No. 1): never showed any liver tumor mass
- liver tumor mass in repeated imaging studies (liver cancer; Case No. 2): never showed any liver tumor mass
- liver tumor mass in repeated imaging studies (liver cancer; Case No. 3): never showed any liver tumor mass
- subsequent development of liver cancer (liver cancer; patients with an elevated alphafetoprotein level who underwent treatment): None of the patients subsequently developed liver cancer
- malignancy detected by careful imaging studies (liver cancer; patients with known liver diseases at high risk, liver diseases continued to progress): no malignancy was ever detected
- time until alphafetoprotein level normalized (alphafetoprotein; Case No. 1: Hepatitis B, rapidly increasing alphafetoprotein, progressively increased dosages of simvastatin): four
- alphafetoprotein level after patient stopped taking simvastatin (alphafetoprotein; Case No. 1: after stopping simvastatin): 33
- alphafetoprotein level after simvastatin was re-introduced (alphafetoprotein; Case No. 1: re-introduced at progressively increased dosages): normalized and has remained normalized
- alphafetoprotein level on maintenance dosages of simvastatin (alphafetoprotein; Case No. 2): remained normalized
- time until alphafetoprotein level normalized (alphafetoprotein; Case No. 2: Hepatitis B, progressively increasing alphafetoprotein, increasing doses of simvastatin): ≤ 5 months
- alphafetoprotein level after normalization (alphafetoprotein; Case No. 3): remained normalized
- time until alphafetoprotein level normalized (alphafetoprotein; Case No. 3: Hepatitis C, alphafetoprotein above 50 before treatment, protocol administration): ≤ 2 months
- elevation of alphafetoprotein during observation period (alphafetoprotein; Case No. 4: patients with Hepatitis B and C or other liver cirrhosis, normal alphafetoprotein, simvastatin daily since diagnosis): None of these patients showed an elevation of alphafetoprotein
- course of alphafetoprotein level (alphafetoprotein; patients with an elevated alphafetoprotein level (above 10 ng/mL) who underwent treatment): progressively decline over several weeks to several months to normal values
